Experimental data as given in patent publication US20040072246A1, “System and method for identifying t cell and other epitopes and the like” (priority 2003, published 2004).
Where no end group is shown, it is not given here.

Experiments:
Assay type in all cases: cell-based, human
T-cell clone CSF-3 = assay: Proliferative assay of T-cell clone CSF-3 (3H-thymidine incorporation); conditions: for EC50: peptide concentration inducing half-maximal proliferation, TCC CSF-3, Table 5; for Potency EC50: concentration inducing half-maximal proliferation; for Potency max. response / Potency % of Max. response / Potency % of max. response: percentage of highest proliferative response (100% = 28,255 c.p.m. for peptide 77)
Procedure: (§1) The proliferation of TCC in response to PS-SCL or individual peptides was tested by seeding in duplicate 2×10^4 T cells, 5×10^4 irradiated PBMC with or without mixtures from PS-SCL or peptide. Proliferation was measured by [^3H]-thymidine incorporation (Hemmer B. et al., 2000, J Immunol 164:861).
(§2) The proliferation of T-cell clones in response to PS-SCL or individual peptides was tested by seeding in duplicate 2×10^4 T-cells, 5×10^4 irradiated peripheral blood mononuclear cells with or without 200 μg/ml PS-SCL or peptide (Hemmer, B. et al. 1998, J Pept Res 52: 338-345). Proliferation was measured by ^3H-thymidine incorporation (Hemmer, B. et al. 1997, J Exp Med 185: 1651-1659). Experiments were repeated at least twice. HLA restriction was determined by using bare lymphocyte syndrome cells transfected with DR2a (DRB5*0101) or DR2b (DRB1*1501) (provided by G. Nepom, University of Washington, Seattle) (Kovats, S. et al. 1994, J Exp Med 179: 2017-2022). The proliferation of peripheral blood mononuclear cells was measured in an IL-7-modified 7-day primary proliferation assay. Peripheral blood mononuclear cells (1×10^5 per well; 10 wells each and 10 control wells per plate) were seeded with 10 ng/ml IL-7 and 15 μg/ml peptide. Then, 1 μCi ^3H-thymidine/well was added at day 7 for 12 h before radioactivity was measured. Wells were considered positive if the counts per minute exceeded the average background proliferation+3 s.d. (Reece J. C. et al., 1993, Immunol 151: 6175-6184).

[1] = test system: peripheral blood mononuclear cells; assay: IL-7-modified 7-day primary proliferation assay of peripheral blood mononuclear cells; conditions: number of wells of 10 with positive primary proliferative response, 15 μg/ml peptide
Procedure: as §2

[2] = test system: TCRζ-chain phosphoisoforms / ZAP-70 in CSF-3 cells; assay: T-cell-receptor signaling (tyrosine phosphorylation of TCR subunits, ZAP-70 immunoprecipitation); conditions: CSF-3 cells stimulated 5 or 10 min
Procedure: T-cells (1×10^6) were added to peptide-pulsed bare lymphocyte syndrome cells (2×10^6) and, after centrifugation (10 s at 300 g), were incubated at 37° C., washed once with PBS and incubated for 25 min on ice in lysis buffer (1% Nonidet-P40, 10 mM Tris-HCl, pH 7.2, 140 mM NaCl, 2 mM EDTA, 5 mM iodoacetamide, 1 mM Na3VO4 and complete protease inhibitor ‘cocktail’; Boehringer). After nuclear debris were removed, proteins in lysate supernatants were immunoprecipitated by incubation at 4° C. for 12 h with rabbit antibody against ZAP-70 (provided by L. Samelson, National Institute of Child Health and Human Development, National Institutes of Health). Proteins were separated by SDS-PAGE and immunoblotted with 4G10, a mouse monoclonal antibody against phosphotyrosine (Upstate Biotechnology, Lake Placid, N.Y.).

TCC GP5F11 = assay: Proliferative assay of TCC GP5F11 (3H-thymidine incorporation); conditions: FIG. 4; result in words
Procedure: as §1

[3] = human autoantigenic mimics, Table 9
[4] = background 1,306 ± 582 c.p.m., Table 9
[5] = B. burgdorferi peptides, Table 8
[6] = background 2,899 ± 1,417 c.p.m., Table 8
[7] = background 2,899 ± 1,417 c.p.m., Table 10

Substance | EC50 (T-cell clone CSF-3) [µg/mL] | Potency EC50 (T-cell clone CSF-3; [5]) [µg/mL] | Potency % of Max. response (T-cell clone CSF-3; Table 8) [%] | PB PP [1, 6] | other results
DNIFKKETLI [D N I F K K E T L I, DNIFKKETLI] | 1 | – | – | – | –
DNITSSVLFN [Peptide 71, DNITSSVLFN] | – | – | – | – | Potency EC50 (T-cell clone CSF-3; [3]): 0.1 to 1 µg/mL; Potency max. response (T-cell clone CSF-3; Table 9): 60.6%; PB PP [1, 4]: 5; effect on early TCR signaling events (TCRζ-chain p38 phospho-isoforms, recruitment of active ZAP-70) [2]: fall agonist response
ENIKKILLRE [Peptide 46, ENIKKILLRE] | – | 0.1 to 1 | 65.1 | 3 | –
ENIYYSSVRT [Peptide 77, ENIYYSSVRT] | – | – | – | – | Potency EC50 (T-cell clone CSF-3; viral mimic peptides, Table 10): 1 to 10 µg/mL; Potency % of max. response (T-cell clone CSF-3; Table 10): 100%; PB PP [1, 7]: 3
ENVKKSRRLI [Peptide 66, ENVKKSRRLI] | – | – | – | – | Potency EC50 (T-cell clone CSF-3; [3]): 0.1 to 1 µg/mL; Potency max. response (T-cell clone CSF-3; Table 9): 64.1%; PB PP [1, 4]: 0
FFIKKRSLII [Peptide 54, FFIKKRSLII] | 1 | 1 to 10 | 59.8 | 5 | –
FNIIKSLLGG [52′, FNIIKSLLGG] | – | – | – | – | Potency EC50 (T-cell clone CSF-3; viral mimic peptides, Table 10): 1 to 10 µg/mL; stimulation (proliferation) of T-cell clone CSF-3 (T-cell clone CSF-3; result in words): stimulatory
FNIIKVHSSL [Peptide 37, FNIIKVHSSL] | – | 0.001 to 0.01 | 69.3 | 1 | –
FNITSSIRNK [Peptide 75, FNITSSIRNK] | – | – | – | – | Potency EC50 (T-cell clone CSF-3; viral mimic peptides, Table 10): 1 µg/mL; Potency % of max. response (T-cell clone CSF-3; Table 10): 63.5%; PB PP [1, 7]: 1
FNITSSTCEL [Peptide 64, FNITSSTCEL] | – | – | – | – | Potency EC50 (T-cell clone CSF-3; [3]): 0.1 to 1 µg/mL; Potency max. response (T-cell clone CSF-3; Table 9): 66.3%; PB PP [1, 4]: 1
FNIYKRVVDN [F N I Y K R V V D N, FNIYKRVVDN] | 1 | – | – | – | –
GHIKKKRVEA [Peptide 63, GHIKKKRVEA] | – | – | – | – | Potency EC50 (T-cell clone CSF-3; [3]): 1 to 10 µg/mL; Potency max. response (T-cell clone CSF-3; Table 9): 56.5%; PB PP [1, 4]: 0
LHIISKRVEA [Peptide 61, LHIISKRVEA] | – | – | – | – | Potency EC50 (T-cell clone CSF-3; [3]): 0.1 to 1 µg/mL; Potency max. response (T-cell clone CSF-3; Table 9): 70.0%; PB PP [1, 4]: 0
LNIKNSKLEI [Peptide 30, LNIKNSKLEI] | – | <0.001 | 64.2 | 0 | –
LNITSSSYLF [Peptide 42, LNITSSSYLF] | – | 1 to 10 | 71.4 | 0 | –
NNIDKKVYTN [N N I D K K V Y T N, NNIDKKVYTN] | 1 to 10 | – | – | – | –

Substance | EC50 (T-cell clone CSF-3) [µg/mL] | Potency EC50 (T-cell clone CSF-3; [5]) [µg/mL] | Potency % of Max. response (T-cell clone CSF-3; Table 8) [%] | PB PP [1, 6] | other results
NNIKSKVDNA [Peptide 47, NNIKSKVDNA] | – | 1 to 10 | 80.6 | 0 | –
NNIYKKALIS [Peptide 59, NNIYKKALIS] | 1 | 0.1 to 1 | 68.1 | 3 | effect on early TCR signaling events (TCRζ-chain p38 phospho-isoforms, recruitment of active ZAP-70) [2]: fall agonist response
PIP5 KIII246-255: low-scoring peptide derived from H. sapiens phosphatidylinositol-4-phosphate 5-kinase type III (LDPSEPRTPV; UniProt Q9Y2I7 246-255, looked up, fragment) | – | – | – | – | proliferative response of TCC GP5F11 (potency) (TCC GP5F11): non-stimulatory
PNITFSVVYN [Peptide 74, PNITFSVVYN] | – | – | – | – | Potency EC50 (T-cell clone CSF-3; viral mimic peptides, Table 10): 0.1 to 1 µg/mL; Potency % of max. response (T-cell clone CSF-3; Table 10): 78.3%; PB PP [1, 7]: 0
QAIGKKTQNN [Peptide 26, QAIGKKTQNN] | – | <0.001 | 80.8 | 3 | –
RNIFKKTVEN [R N I F K K T V E N, RNIFKKTVEN] | >100 | – | – | – | –
SFIYSVVCLV [Peptide 62, SFIYSVVCLV] | – | – | – | – | Potency EC50 (T-cell clone CSF-3; [3]): 0.1 to 1 µg/mL; Potency max. response (T-cell clone CSF-3; Table 9): 75.7%; PB PP [1, 4]: 9
SNIIKKTSED [Peptide 57, SNIIKKTSED] | 1 | 0.1 to 1 | 65.2 | 4 | –
SNIIKSLSLF [S N I I K S L S L F, SNIIKSLSLF] | 0.1 to 1 | – | – | – | –
SNIKSKLILV [S N I K S K L I L V, SNIKSKLILV] | 1 | – | – | – | –
TLITKKISAI [Peptide 28, TLITKKISAI] | – | <0.001 | 65.9 | 1 | –
WMKQNIGRFL [predicted stimulatory peptide with optimal amino acids in each position for TCC GP5F11] | – | – | – | – | proliferative response of TCC GP5F11 (potency) (TCC GP5F11): two orders of magnitude more potent than the target sequence
YNIIVSSLLL [Y N I I V S S L L L, YNIIVSSLLL] | 1 to 10 | – | – | – | –
YNIKKIKVED [Peptide 38, YNIKKIKVED] | – | 0.1 to 1 | 62.7 | 1 | –
YVKQNTLKLA (listed as Influenza virus) [Flu-HA308-317, influenza virus hemagglutinin decamer, target peptide of TCC GP5F11, reference compound] | – | – | – | – | proliferative response of TCC GP5F11 (potency) (TCC GP5F11): intermediate potency
